Reference: ChEMBL document CHEMBL1201862, “PubChem BioAssay data set” (2004)
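The compound was tested at five concentrations on cells cultured in 96-well plates, with a 48-hour exposure period. GI50 is the concentration that inhibits growth by half.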 Active and inactive are the calls of the source. No stated cut-off is given here; in the data, active = GI50 up to about 1.1 µM and inactive = higher.

Key:
Test in all cases: inhibition of tumour cell growth, NCI panel, 48 h
SF-539 = system: SF-539
DU-145 = system: DU-145
KM12 = system: KM12
SF-268 = system: SF-268
ACHN = system: ACHN
M14 = system: M14
BT-549 = system: BT-549
HOP-92 = system: HOP-92
SK-MEL-5 = system: SK-MEL-5
COLO 205 = system: COLO 205
Hs-578T = system: Hs-578T
U-251 = system: U-251
PC-3 = system: PC-3
CAKI-1 = system: CAKI-1
SK-MEL-2 = system: SK-MEL-2
MCF7 = system: MCF7
HL-60 = system: HL-60
K562 = system: K562
SK-OV-3 = system: SK-OV-3

Measured: GI50

CCOC(=O)CC(=O)Nc1c(C(=O)OCC)sc2nc(SC)nc(Nc3ccc(OC)c(OC)c3)c12
inactive: SF-539 9.86 µM | DU-145 39.7 µM | KM12 80.5 µM | SF-268 3.19 µM | ACHN 19.8 µM | M14 > 100 µM | BT-549 27.5 µM | HOP-92 9.25 µM | SK-MEL-5 > 100 µM | COLO 205 > 100 µM | Hs-578T 7.73 µM | U-251 6.4 µM | PC-3 > 100 µM | CAKI-1 64 µM | SK-MEL-2 25.6 µM | MCF7 38.2 µM | HL-60 > 100 µM

COC(=O)[C@@H]1C2OC(C)(C)OC2CN1C(=O)OCc1ccccc1 (some centres undefined)
inactive: SF-539 > 100 µM | K562 > 100 µM | DU-145 > 100 µM | KM12 > 100 µM | SF-268 > 100 µM | ACHN > 100 µM | M14 > 100 µM | BT-549 > 100 µM | HOP-92 > 100 µM | SK-MEL-5 > 100 µM | COLO 205 > 100 µM | Hs-578T > 100 µM | U-251 > 100 µM | PC-3 > 100 µM | CAKI-1 > 100 µM | SK-MEL-2 > 100 µM | MCF7 > 100 µM | HL-60 > 100 µM | SK-OV-3 > 100 µM

CCOC(=O)c1ccc(/N=C/C=C(\Nc2ccc(C(=O)OCC)cc2)c2ccc3ccccc3c2)cc1
inactive: SF-539 20.2 µM | K562 13.3 µM | DU-145 37.3 µM | KM12 17.2 µM | SF-268 42.1 µM | ACHN 30.5 µM | M14 23.7 µM | BT-549 17 µM | HOP-92 78 µM | SK-MEL-5 18.3 µM | COLO 205 16.2 µM | Hs-578T 31.1 µM | U-251 32.8 µM | PC-3 31.3 µM | CAKI-1 25 µM | SK-MEL-2 23.5 µM | MCF7 23.4 µM | HL-60 25.4 µM | SK-OV-3 30.2 µM

COc1cc(/C=N\N(C)C)cc(/C=N/N(C)C)c1O
inactive: SF-539 6.03 µM | DU-145 68.7 µM | KM12 > 100 µM | SF-268 38.5 µM | ACHN 21.3 µM | M14 18.3 µM | BT-549 13.4 µM | HOP-92 6.14 µM | SK-MEL-5 26.2 µM | COLO 205 17.1 µM | Hs-578T 3.53 µM | U-251 21.1 µM | PC-3 16.4 µM | CAKI-1 21.1 µM | SK-MEL-2 7.89 µM | MCF7 > 100 µM | HL-60 9.71 µM | SK-OV-3 15.5 µM

O=[N+]([O-])c1ccc(/C=N/CC2CCCN3CCCCC23)cc1 (centres undefined)
inactive: K562 19.5 µM | DU-145 > 100 µM | KM12 33.2 µM | SF-268 > 100 µM | ACHN > 100 µM | M14 55 µM | BT-549 > 100 µM | HOP-92 > 100 µM | SK-MEL-5 > 100 µM | COLO 205 50.9 µM | Hs-578T > 100 µM | U-251 40.6 µM | PC-3 > 100 µM | CAKI-1 > 100 µM | SK-MEL-2 > 100 µM | MCF7 24 µM | HL-60 26.7 µM | SK-OV-3 > 100 µM

COC(=O)CNC(=O)C(CSC(=O)OCC1c2ccccc2-c2ccccc21)NC(=O)CCC(NC(=O)OCC1c2ccccc2-c2ccccc21)C(=O)OC (centres undefined)
inactive: SF-539 19.2 µM | K562 28.7 µM | DU-145 > 100 µM | SF-268 21.3 µM | ACHN 55.1 µM | M14 24 µM | BT-549 17.5 µM | HOP-92 13.5 µM | SK-MEL-5 78.7 µM | COLO 205 29.4 µM | Hs-578T 28.4 µM | PC-3 30.8 µM | CAKI-1 7.5 µM | SK-MEL-2 16.9 µM | MCF7 18.5 µM | HL-60 19.1 µM | SK-OV-3 30.3 µM

CCOC(=O)c1cc2c([nH]1)C(=O)CC1=C2CCN1Cc1ccccc1
inactive: SF-539 22.1 µM | K562 3.8 µM | DU-145 15.2 µM | KM12 17.6 µM | SF-268 21.3 µM | ACHN 12.9 µM | BT-549 18.1 µM | HOP-92 14.3 µM | COLO 205 16.8 µM | Hs-578T 20.4 µM | U-251 12.5 µM | PC-3 20.5 µM | CAKI-1 3.46 µM | SK-MEL-2 20.5 µM | MCF7 13.3 µM | HL-60 7.4 µM | SK-OV-3 19.4 µM

COC(=O)C(=O)C(C(=O)C(=O)Nc1ccc(Cl)cc1Cl)c1nc2ccc(Cl)cc2nc1O (centres undefined)
inactive: SF-539 > 100 µM | DU-145 > 100 µM | KM12 > 100 µM | SF-268 > 100 µM | ACHN > 100 µM | M14 > 100 µM | BT-549 > 100 µM | HOP-92 58.5 µM | SK-MEL-5 > 100 µM | COLO 205 > 100 µM | Hs-578T > 100 µM | U-251 > 100 µM | PC-3 > 100 µM | CAKI-1 > 100 µM | SK-MEL-2 > 100 µM | MCF7 > 100 µM | HL-60 > 100 µM | SK-OV-3 > 100 µM

OCC1OC(c2cccc3cc(O)c(O)cc23)CC1O (centres undefined)
inactive: SF-539 > 100 µM | K562 > 100 µM | DU-145 > 100 µM | KM12 > 100 µM | SF-268 93.1 µM | ACHN > 100 µM | M14 > 100 µM | BT-549 > 100 µM | HOP-92 > 100 µM | Hs-578T > 100 µM | U-251 > 100 µM | PC-3 > 100 µM | SK-MEL-2 > 100 µM | MCF7 > 100 µM | HL-60 42.3 µM | SK-OV-3 > 100 µM

Cc1cn([C@@H]2C[C@H](CO)[C@@H]2O)c(=O)[nH]c1=O
inactive: SF-539 > 100 µM | K562 > 100 µM | DU-145 > 100 µM | KM12 > 100 µM | SF-268 > 100 µM | ACHN > 100 µM | BT-549 > 100 µM | HOP-92 > 100 µM | SK-MEL-5 > 100 µM | COLO 205 > 100 µM | Hs-578T > 100 µM | U-251 > 100 µM | PC-3 > 100 µM | CAKI-1 > 100 µM | SK-MEL-2 > 100 µM | MCF7 > 100 µM | HL-60 > 100 µM

COc1cc(C2SCC(=O)N2c2ccc(-n3c(-c4ccccc4)nc4ccccc4c3=O)cc2)cc(OC)c1OC (centres undefined)
inactive: SF-539 > 100 µM | K562 > 100 µM | DU-145 > 100 µM | KM12 97.3 µM | SF-268 82.4 µM | ACHN > 100 µM | BT-549 > 100 µM | HOP-92 28.6 µM | SK-MEL-5 68.9 µM | COLO 205 > 100 µM | Hs-578T 20.1 µM | U-251 > 100 µM | PC-3 > 100 µM | CAKI-1 > 100 µM | SK-MEL-2 > 100 µM | MCF7 > 100 µM | HL-60 > 100 µM | SK-OV-3 97.1 µM
